Experimental data reported in BigSolDB 2.1.

Structure (SMILES): CCCCCOC(=O)Nc1nc(=O)n([C@@H]2O[C@H](C)[C@@H](O)[C@H]2O)cc1F
- solubility (mole fraction) (in 2-ethylhexanol, 278.02 K): 0.0011
- solubility (mole fraction) (in 2-ethylhexanol, 282.93 K): 0.0013
- solubility (mole fraction) (in 2-ethylhexanol, 287.88 K): 0.0019
- solubility (mole fraction) (in 2-ethylhexanol, 292.57 K): 0.0027
- solubility (mole fraction) (in 2-ethylhexanol, 297.38 K): 0.0036
- solubility (mole fraction) (in 2-ethylhexanol, 302.24 K): 0.005
- solubility (mole fraction) (in 2-ethylhexanol, 307.13 K): 0.0069
- solubility (mole fraction) (in 2-ethylhexanol, 312.04 K): 0.0096
- solubility (mole fraction) (in 2-ethylhexanol, 316.73 K): 0.0125
- solubility (mole fraction) (in 2-ethylhexanol, 321.76 K): 0.0173
- solubility (mole fraction) (in 2-octanol, 278.04 K): 0.001
- solubility (mole fraction) (in 2-octanol, 282.95 K): 0.0014
- solubility (mole fraction) (in 2-octanol, 287.9 K): 0.0018
- solubility (mole fraction) (in 2-octanol, 292.55 K): 0.0025
- solubility (mole fraction) (in 2-octanol, 298.45 K): 0.0036
- solubility (mole fraction) (in 2-octanol, 302.3 K): 0.0047
- solubility (mole fraction) (in 2-octanol, 307.15 K): 0.0064
- solubility (mole fraction) (in 2-octanol, 312.05 K): 0.0087
- solubility (mole fraction) (in 2-octanol, 317.75 K): 0.0116
- solubility (mole fraction) (in 2-octanol, 322.2 K): 0.0151
- solubility (mole fraction) (in ethanol, 278.25 K): 0.0099
- solubility (mole fraction) (in ethanol, 282.86 K): 0.0123
- solubility (mole fraction) (in ethanol, 287.85 K): 0.017
- solubility (mole fraction) (in ethanol, 292.84 K): 0.0247
- solubility (mole fraction) (in ethanol, 297.75 K): 0.0353
- solubility (mole fraction) (in ethanol, 302.55 K): 0.048
- solubility (mole fraction) (in ethanol, 307.25 K): 0.0676
- solubility (mole fraction) (in ethanol, 312.14 K): 0.0933
- solubility (mole fraction) (in ethanol, 317.35 K): 0.127
- solubility (mole fraction) (in ethanol, 322.13 K): 0.166
- solubility (mole fraction) (in ethylene glycol, 278.65 K): 0.01
- solubility (mole fraction) (in ethylene glycol, 283.15 K): 0.0125
- solubility (mole fraction) (in ethylene glycol, 287.95 K): 0.017
- solubility (mole fraction) (in ethylene glycol, 293 K): 0.021
- solubility (mole fraction) (in ethylene glycol, 297.95 K): 0.0267
- solubility (mole fraction) (in ethylene glycol, 302.95 K): 0.0348
- solubility (mole fraction) (in ethylene glycol, 307.65 K): 0.0437
- solubility (mole fraction) (in ethylene glycol, 312.1 K): 0.0539
- solubility (mole fraction) (in ethylene glycol, 316.85 K): 0.0661
- solubility (mole fraction) (in ethylene glycol, 322.25 K): 0.0877
- solubility (mole fraction) (in isobutanol, 278.26 K): 0.0012
- solubility (mole fraction) (in isobutanol, 283.15 K): 0.0018
- solubility (mole fraction) (in isobutanol, 288.1 K): 0.0029
- solubility (mole fraction) (in isobutanol, 293.38 K): 0.0046
- solubility (mole fraction) (in isobutanol, 298.02 K): 0.007
- solubility (mole fraction) (in isobutanol, 302.85 K): 0.0107
- solubility (mole fraction) (in isobutanol, 307.4 K): 0.0156
- solubility (mole fraction) (in isobutanol, 312.25 K): 0.0232
- solubility (mole fraction) (in isobutanol, 316.95 K): 0.0336
- solubility (mole fraction) (in isobutanol, 321.95 K): 0.0492
- solubility (mole fraction) (in isopentanol, 278.25 K): 0.0027
- solubility (mole fraction) (in isopentanol, 282.97 K): 0.0038
- solubility (mole fraction) (in isopentanol, 288.76 K): 0.0057
- solubility (mole fraction) (in isopentanol, 292.64 K): 0.0074
- solubility (mole fraction) (in isopentanol, 297.33 K): 0.0102
- solubility (mole fraction) (in isopentanol, 302.27 K): 0.0141
- solubility (mole fraction) (in isopentanol, 307.06 K): 0.0193
- solubility (mole fraction) (in isopentanol, 312.04 K): 0.0267
- solubility (mole fraction) (in isopentanol, 316.78 K): 0.0361
- solubility (mole fraction) (in isopentanol, 321.47 K): 0.0485
- solubility (mole fraction) (in isopropanol, 277.98 K): 0.0011
- solubility (mole fraction) (in isopropanol, 283.49 K): 0.0016
- solubility (mole fraction) (in isopropanol, 288.07 K): 0.0024
- solubility (mole fraction) (in isopropanol, 293.16 K): 0.0037
- solubility (mole fraction) (in isopropanol, 297.34 K): 0.0053
- solubility (mole fraction) (in isopropanol, 302.29 K): 0.0079
- solubility (mole fraction) (in isopropanol, 307.07 K): 0.0115
- solubility (mole fraction) (in isopropanol, 312.14 K): 0.017
- solubility (mole fraction) (in isopropanol, 316.88 K): 0.0241
- solubility (mole fraction) (in isopropanol, 321.47 K): 0.034
- solubility (mole fraction) (in n-butanol, 278.1 K): 0.0021
- solubility (mole fraction) (in n-butanol, 283.03 K): 0.003
- solubility (mole fraction) (in n-butanol, 288.02 K): 0.0045
- solubility (mole fraction) (in n-butanol, 293.53 K): 0.007
- solubility (mole fraction) (in n-butanol, 298 K): 0.0106
- solubility (mole fraction) (in n-butanol, 303.15 K): 0.016
- solubility (mole fraction) (in n-butanol, 308.25 K): 0.0239
- solubility (mole fraction) (in n-butanol, 312.35 K): 0.0351
- solubility (mole fraction) (in n-butanol, 317.4 K): 0.051
- solubility (mole fraction) (in n-butanol, 322.49 K): 0.077
- solubility (mole fraction) (in n-heptanol, 278 K): 0.0018
- solubility (mole fraction) (in n-heptanol, 283.15 K): 0.0025
- solubility (mole fraction) (in n-heptanol, 288.33 K): 0.0036
- solubility (mole fraction) (in n-heptanol, 292.53 K): 0.0047
- solubility (mole fraction) (in n-heptanol, 297.63 K): 0.0065
- solubility (mole fraction) (in n-heptanol, 303.3 K): 0.0092
- solubility (mole fraction) (in n-heptanol, 308.35 K): 0.0126
- solubility (mole fraction) (in n-heptanol, 313.25 K): 0.017
- solubility (mole fraction) (in n-heptanol, 318.05 K): 0.0226
- solubility (mole fraction) (in n-heptanol, 322.85 K): 0.0299
- solubility (mole fraction) (in n-hexanol, 278.1 K): 0.0018
- solubility (mole fraction) (in n-hexanol, 284.33 K): 0.0029
- solubility (mole fraction) (in n-hexanol, 287.97 K): 0.0038
- solubility (mole fraction) (in n-hexanol, 293.85 K): 0.006
- solubility (mole fraction) (in n-hexanol, 297.6 K): 0.008
- solubility (mole fraction) (in n-hexanol, 303.55 K): 0.0125
- solubility (mole fraction) (in n-hexanol, 308.55 K): 0.0173
- solubility (mole fraction) (in n-hexanol, 313.15 K): 0.0241
- solubility (mole fraction) (in n-hexanol, 317.75 K): 0.0333
- solubility (mole fraction) (in n-hexanol, 322.25 K): 0.0461
- solubility (mole fraction) (in n-octanol, 278.65 K): 0.0022
- solubility (mole fraction) (in n-octanol, 283 K): 0.003
- solubility (mole fraction) (in n-octanol, 287.98 K): 0.004
- solubility (mole fraction) (in n-octanol, 292.95 K): 0.0055
- solubility (mole fraction) (in n-octanol, 298.35 K): 0.0076
- solubility (mole fraction) (in n-octanol, 302.94 K): 0.01
- solubility (mole fraction) (in n-octanol, 307.5 K): 0.0131
- solubility (mole fraction) (in n-octanol, 312.35 K): 0.0173
- solubility (mole fraction) (in n-octanol, 317.05 K): 0.0226
- solubility (mole fraction) (in n-octanol, 322.05 K): 0.0307
- solubility (mole fraction) (in n-pentanol, 278.2 K): 0.002
- solubility (mole fraction) (in n-pentanol, 282.97 K): 0.0031
- solubility (mole fraction) (in n-pentanol, 288.26 K): 0.0051
- solubility (mole fraction) (in n-pentanol, 292.64 K): 0.0071
- solubility (mole fraction) (in n-pentanol, 297.33 K): 0.0101
- solubility (mole fraction) (in n-pentanol, 302.27 K): 0.0146
- solubility (mole fraction) (in n-pentanol, 307.06 K): 0.0205
- solubility (mole fraction) (in n-pentanol, 312.04 K): 0.0292
- solubility (mole fraction) (in n-pentanol, 316.78 K): 0.0404
- solubility (mole fraction) (in n-pentanol, 321.47 K): 0.0555
- solubility (mole fraction) (in n-propanol, 278 K): 0.0024
- solubility (mole fraction) (in n-propanol, 283.06 K): 0.0037
- solubility (mole fraction) (in n-propanol, 287.98 K): 0.0055
- solubility (mole fraction) (in n-propanol, 292.87 K): 0.0088
- solubility (mole fraction) (in n-propanol, 297.33 K): 0.0132
- solubility (mole fraction) (in n-propanol, 302.29 K): 0.0205
- solubility (mole fraction) (in n-propanol, 307.07 K): 0.0309
- solubility (mole fraction) (in n-propanol, 312.14 K): 0.0471
- solubility (mole fraction) (in n-propanol, 316.88 K): 0.0687
- solubility (mole fraction) (in n-propanol, 321.47 K): 0.0997
- solubility (mole fraction) (in sec-butanol, 278.15 K): 0.001
- solubility (mole fraction) (in sec-butanol, 283.17 K): 0.0016
- solubility (mole fraction) (in sec-butanol, 288.13 K): 0.0026
- solubility (mole fraction) (in sec-butanol, 293.35 K): 0.0043
- solubility (mole fraction) (in sec-butanol, 298.44 K): 0.0065
- solubility (mole fraction) (in sec-butanol, 302.9 K): 0.0093
- solubility (mole fraction) (in sec-butanol, 307.65 K): 0.014
- solubility (mole fraction) (in sec-butanol, 312.44 K): 0.0207
- solubility (mole fraction) (in sec-butanol, 317.25 K): 0.0301
- solubility (mole fraction) (in sec-butanol, 321.9 K): 0.0428
- solubility (mole fraction) (in tert-butanol, 299.65 K): 0.0078
- solubility (mole fraction) (in tert-butanol, 302.75 K): 0.0096
- solubility (mole fraction) (in tert-butanol, 307.43 K): 0.0139
- solubility (mole fraction) (in tert-butanol, 312.2 K): 0.0199
- solubility (mole fraction) (in tert-butanol, 317.04 K): 0.0294
- solubility (mole fraction) (in tert-butanol, 321.65 K): 0.0423
- solubility (mole fraction) (in water, 278.25 K): 0.0009
- solubility (mole fraction) (in water, 283.2 K): 0.001
- solubility (mole fraction) (in water, 288.3 K): 0.001
- solubility (mole fraction) (in water, 293.25 K): 0.0011
- solubility (mole fraction) (in water, 298.25 K): 0.0012
- solubility (mole fraction) (in water, 302.8 K): 0.0013
- solubility (mole fraction) (in water, 308 K): 0.0014
- solubility (mole fraction) (in water, 312.95 K): 0.0015
- solubility (mole fraction) (in water, 317.65 K): 0.0016
- solubility (mole fraction) (in water, 322.75 K): 0.0017
